Laboratory results taken from patent US20220290095A1, “Bifidobacterium breve CCFM1025, Food Fermented Thereby and Application Thereof” (Jiangnan University, priority 2018, published 2022).

Key:
[1] = tested on: depressed mice (chronic unpredictable stress depression mouse model); assay: Depression-like behaviors of depressed mice (behavioral tests overall); type: in vivo, C57BL/6J mice
Description: (§1) 32 6-week-old male C57BL/6J mice were selected. After one week of adaptation to the environment, the mice were randomly divided into four groups according to body weight: a control group, a model group, a fluoxetine intervention group, and a CCFM1025 intervention group, each containing 8 mice.
(§2) Chronic unpredictable stress depression mouse model: 1-2 kinds of stimuli were randomly performed every day, and the performance time of stimuli every day was determined randomly to avoid the circadian rhythm. Each method was used for not more than three times, and the stimuli were performed for five weeks. The stimuli include: (1) fasting for 24 h; (2) water deprivation+empty bottle stimulus for 24 h; (3) tail pinching for 3 min; (4) wet padding for 24 h; (5) immobilization for 1-2 h; (6) […] for 24 h; (7) continuous lighting for 24 h; (8) no padding for 24 h; (9) forced swim for 15 min; and (10) separation for 24 h.
Lactic acid bacteria gavage: the activated second generation of Bifidobacterium CCFM1025 was taken and cultured at 37° C. for 24 h, and the bacteria were collected after centrifugation at 4° C. and 8000 r/min for 3 min. The supernatant was discarded and the bacteria were resuspended with 5% sterilized skim milk to make the concentration of lactic acid bacteria reach 5×10^9 CFU/mL. The gavage volume is 0.2 mL/mouse/day. […]

[2] = tested on: 5-HT in the serum; assay: 5-HT in serum of depressed mice (ELISA); type: in vivo, C57BL/6J mice; conditions: concluded from serum 5-HT, FIG. 4
Description: as §1, §2
Lactic acid bacteria gavage: the activated second generation of Bifidobacterium CCFM1025 was taken and cultured at 37° C. for 24 h, and the bacteria were collected after centrifugation at 4° C. and 8000 r/min for 3 min. […]
The serum collected in Example 3 was taken and the content of 5-HT in the serum was measured using an ELISA kit. […]

Compound: CNCCC(Oc1ccc(C(F)(F)F)cc1)c1ccccc1 (centres unmarked) [fluoxetine]
- depression-like behaviors / antidepressant effect [1]: has an antidepressant effect
- intestinal peristalsis / intestinal function [2]: cannot improve the intestinal function
